One may read the melting point as the temperature, or range, at which the solid turns liquid.

The values below come from a melting point compilation (Tetko et al.; mined from patent text by program, amines drawn as free bases though some values may be those of a salt).

The structures appear in SMILES notation.

Consider `Cn1ncnc1COc1nn2c(-c3ccccc3F)nncc2c1-c1cccnc1`, for which the melting point fell in the range of 181 to 183 °C.
Regarding `CCOC(=O)c1cccc(-c2ccccc2C#N)c1`, the melting point lay in the range of 81.5 to 82 °C.
`Nc1nc2c(c(=O)[nH]1)CCCC2` showed a melting point of more than 300 °C.
In turn, `COc1ccc(OCC(C)Oc2ccc(OC)cc2)cc1` (centres undefined) came in with a melting point of 84 to 84.5 °C.
The compound `O=C(O)COC(=O)c1c(Cl)cccc1Cl` came in with a melting point of 180 to 182 °C.
The compound `Cc1c(-c2ccccc2)oc(=O)c(Sc2ccccc2)c1O` displayed a melting point of 166 to 167 °C.
`CCOC(=O)NNc1nc2ccc(-n3ccnc3)cc2n(OCc2ccccc2)c1=O` showed a melting point of 197 to 199 °C.
`NS(=O)(=O)c1ccc(-c2cc(-c3nc(-c4ccc(Cl)cc4)cc(C(F)(F)F)n3)ccn2)s1`: the melting point is 290 °C.
The value for `CS(=O)(=O)c1ccc(-c2cnn(CC(F)(F)F)c(=O)c2Sc2ccc(F)c(Cl)c2)cc1` was 142 to 145 °C; that for `COC(=O)CC(O)CC(O)CCc1c(-c2ccc(F)cc2)c(-c2ccccc2)c(C(=O)Nc2ccc(C(=O)OC)cn2)n1C(C)C` (centres undefined) was 71 to 75 °C; that for `CC(C)(C#N)Cc1ccccc1CC(C)(C)C#N` was 76 to 80 °C.
As for `c1nc(Cc2ccc3c(c2)COCO3)c[nH]1`, the melting point amounted to 145 °C.
Regarding `O=C(O)c1cccc(-c2cccn3cc(Cc4cccc(C(F)(F)F)c4)nc23)c1`, the melting point fell in the range of 179 to 180 °C.
The compound `CCOCc1nc2c(N)nc3ccccc3c2n1CCNC(=O)OC(C)(C)C` registered a melting point of 201 to 202 °C.
`COc1ccnc(C(C)Sc2nc3cc4c(cc3[nH]2)OC(F)(F)O4)c1` (centres undefined) gave a melting point of 173 to 175 °C.
The value for `Cc1cccc(-c2ncc(NC(=O)OCc3ccccc3)c(=O)n2CC(=O)O)c1` was 183 to 185 °C; that for `CC(C)c1ccc(CCC(O)(P(=O)(O)O)P(=O)(O)O)cc1` was 174 °C.
In the case of `CC(c1oc2ccccc2c(=O)c1-c1ccccc1)n1cnc2c(N)ncnc21` (centres undefined), the melting point is 254 to 257 °C.
Take `Cc1ccnc(N2CCN(CCC3Cn4c(-c5ccc(O)cc5)c(C)c5cccc(c54)O3)CC2)c1` (centres undefined): the melting point lay within 213 to 214 °C.
Turning to `COc1cnc(CSc2nc3cc(OC(F)(F)F)ccc3[nH]2)c(C)c1OC`, the melting point lay within 94 to 97 °C.
`CCOC(=O)C1=C(Nc2ccccc2)CN(C(=O)c2ccccc2)C1` had a melting point of 149 to 151 °C.
The value for `Cc1nc(N2CCN(Cc3ccc(F)cc3)C2=O)sc1C(=O)NCc1cnn(C)c1` was 173 to 175 °C; that for `Cc1ccccc1OC1CCN(CCc2c[nH]c3ccccc23)CC1` was 88 to 90 °C; that for `Oc1cccc(C=C2c3ccc(Cl)cc3CCc3cccnc32)c1` was 221 °C.
`CN1C(=O)CC[C@]2(C)c3ccc(-c4c(F)c(F)c(Cl)c(F)c4F)cc3CC[C@@H]12` returned a melting point of 150 to 151 °C.
Take `Cc1cccc2[nH]c(-c3ccccc3[N+](=O)[O-])nc12`: the melting point lay within 167 to 168 °C.
Compound `CC(C)C(CN1CCC(Nc2nc3ccccc3n2-c2cccc3c2NCCC3)CC1)NCc1ccccc1` (centres undefined) yielded a melting point of 126 °C.
Compound `c1ccc(C2CNc3c(cnc4ccccc34)O2)cc1` (centres undefined) gave a melting point of 194 to 195 °C.
Regarding `CC(C)n1nc(-c2c(-c3ccccc3)nc(N)nc2-n2ccnc2)ccc1=O`, the melting point is 255 to 258 °C.
`CCOC(=O)C(C#N)=Cc1c(Cl)n(C)c2ccccc12`: the melting point is 131 to 132 °C.
In the case of `CC1(C)CC(NCCCCCCC(=O)O)CC(C)(C)N1` it was 162 to 165 °C; in that of `CCCC(CCC)c1ccc(COc2ccc(-c3csc(COc4cncc(C(=O)O)c4)n3)cc2)cc1`, 172 to 174 °C; in that of `CN(C)C1(c2ccccc2)CCC(CNC(=O)N2CCC(c3c[nH]c4ccccc34)CC2)CC1` (centres undefined), 104 to 107 °C.
Regarding `C=C(C)c1cc(NC(=O)N2CCN(c3cc(OC)cc(OC)c3)CC2)c(OC)nc1C`, the melting point was in the range of 83 to 85 °C.
Regarding `O=S(CCN1C=CC=CC=C1)c1ccccc1` (centres undefined), the melting point turned out to be 195 °C.
The value for `CCc1c(C)sc2ncnc(Cl)c12` was 52 to 56 °C.
Compound `CCOC(=O)c1ccc(-c2cnc(-c3ccc(C(F)(F)F)cc3)o2)cc1` gave a melting point of 142 to 143 °C.
The value for `N#CCCN(CCC#N)CCN(CCC#N)CCC#N` was 63 to 65 °C; that for `CCOC(=O)c1cn(CC)c2nc(N3CCNCC3)ncc2c1=O` was 155 °C.
For the compound `CC(C)(C)OC(=O)N[C@@H](Cc1ccc(OS(=O)(=O)C(F)(F)F)cc1)C(=O)OC(c1ccccc1)c1ccccc1`, the melting point lay within 110 to 112 °C.
Compound `Cc1nc(-n2ccn(CCc3ccc(F)cc3)c2=O)sc1C(=O)NCc1cccnc1` yielded a melting point of 160 to 162 °C.
In the case of `CCCCCCc1ccc(-c2ccc(-c3ncc(C(=O)OCC)c(O)n3)cc2)cc1`, the melting point was in the range of 91.6 to 91.9 °C.
`CC(C)C[C@H](NC(=O)[C@H](CC(C)C)N[C@H](CC(C)C)C(=O)OCc1ccccc1)C(=O)N[C@@H](C)C(N)=O` gave a melting point of 133 to 134 °C.
The value for `CC(=N)N(C)C1CCCCC1` was 108 to 110 °C; that for `CC(C)(C)OC(=O)N1CCn2c(C#N)c(-c3cccc(F)c3)c(C(N)=O)c2C1` was 208 to 210 °C; that for `COc1ccnc(CS(=O)c2nc3cc(C(F)(F)F)ccc3[nH]2)c1C` (centres undefined) was 225 to 227 °C.
The value for `COC(=O)c1ccccc1COc1ccccc1Br` was 73 to 74 °C.
Compound `COC(=O)CCCCCSC1=CCCC1=O` registered a melting point of 45 to 46.5 °C.
`Fc1ccc(Nc2ncnc3cc(-c4ccoc4)ccc23)cc1Cl` came in with a melting point of 249 to 250 °C.
With `COC(=O)Cc1sc(N=C2SC[C@@H]3Cc4ccccc4CN23)nc1C`, the melting point turned out to be 66 °C.
The compound `CCOC(=O)C(N)=NOC(=O)c1cnccc1C(F)(F)F` registered a melting point of 172 to 174 °C.
On to `O=Cc1ccc2cc[nH]c2c1`, for which the melting point lay in the range of 126 to 128 °C.
For the compound `O=C1c2ccccc2C2(c3ccc(Cl)cc3)NCCN12` (centres undefined), the melting point lay in the range of 166 to 168 °C.
For the compound `CCOC(=O)c1cnc2c(c1Cl)CN(C(=O)OCC)CC2`, the melting point lay in the range of 231 to 233 °C.
In the case of `O=C(NC1(C(=O)O)CCCC1)C(CS)Cc1ccccc1` (centres undefined) it was 165 to 167 °C; in that of `COCCNc1nc(C)nc2c1nnn2-c1ccc(C(C)C)cc1Br`, 134 to 136 °C.
In the case of `COc1cc(C)c(C=CC(C)=CC=CC(C)=CC(=O)NC(C)C)c(C)c1C`, the melting point was 200 °C.
In the case of `CCC12CCC3C4CCC(OC(C)=O)=CC4=CCC3C1CCC2OC(C)=O` (centres undefined) it was 148 to 156 °C; in that of `Cc1oc2cc(CO)ccc2c1C`, 78 to 79 °C; in that of `Cc1ccc2c(c1)c(-c1ccc(F)cc1)c(Cl)n2C1CCN(CCN2CCN(C(C)C)C2=O)CC1`, 127 to 130 °C.
`CSc1nc(-c2cccnc2)n(-c2ccc(F)cc2)c(=O)c1C#N` registered a melting point of 190 to 193 °C.
`CCOC(=O)C(=CNc1ncnc2ccc([N+](=O)[O-])cc12)C(=O)OCC` displayed a melting point of 228 to 230 °C.
In the case of `Nc1sc2c(c1C(=O)c1cc3ccccc3o1)CCN(Cc1ccccc1)C2`, the melting point lay within 83 to 87 °C.
`O=c1c2ccccc2ccc2ccc(I)cc12` had a melting point of 97.5 to 99 °C.
